Experimental data reported in the CheMixHub viscosity set.

Experiment: xn = mol fraction of the nth substance listed

CC(C)OCCO + CCCCCCCCO
viscosity [mPa·s], 101 kPa
Conditions	298.15 K	303.15 K	308.15 K
x1 = 0.0517	7.288	6.066	5.217
x1 = 0.1016	6.902	5.729	4.938
x1 = 0.1531	6.517	5.401	4.671
x1 = 0.2013	6.178	5.106	4.415
x1 = 0.2524	5.832	4.817	4.162
x1 = 0.3033	5.49	4.523	3.906
x1 = 0.4	4.893	4.027	3.482
x1 = 0.5012	4.314	3.556	3.086
x1 = 0.618	3.706	3.07	2.691
x1 = 0.7017	3.325	2.776	2.459
x1 = 0.8102	2.849	2.418	2.155
x1 = 0.8492	2.721	2.322	2.091
x1 = 0.9046	2.477	2.157	1.986
x1 = 0.9472	2.36	2.064	1.911

O=C(OCc1ccccc1)c1ccccc1 + CCOC(=O)c1ccccc1
298.15 K, 101 kPa
Conditions	viscosity [mPa·s]
x2 = 0.0465	8.039
x2 = 0.1549	6.898
x2 = 0.2475	6.108
x2 = 0.2973	5.695
x2 = 0.3945	4.948
x2 = 0.5054	4.309
x2 = 0.5941	3.74
x2 = 0.6906	3.249
x2 = 0.8023	2.749
x2 = 0.8963	2.371

CCOCCOCCOCC + CC1COC(=O)O1
viscosity [mPa·s], 101.33 kPa
Conditions	298.15 K	308.15 K	318.15 K
x1 = 0.013	2.474	2.024	1.703
x1 = 0.0542	2.418	1.982	1.658
x1 = 0.1089	2.353	1.923	1.605
x1 = 0.1594	2.288	1.875	1.555
x1 = 0.2136	2.225	1.827	1.506
x1 = 0.257	2.179	1.782	1.466
x1 = 0.3304	2.08	1.702	1.39
x1 = 0.4267	1.94	1.589	1.297
x1 = 0.497	1.833	1.504	1.227
x1 = 0.5874	1.717	1.404	1.152
x1 = 0.6907	1.589	1.306	1.076
x1 = 0.7876	1.474	1.219	1.01
x1 = 0.8704	1.377	1.148	0.957
x1 = 0.9264	1.316	1.101	0.922
x1 = 0.9628	1.289	1.071	0.901

CCOS(=O)(=O)[O-].CC[N+](CC)=C(N(C)C)N(C)C + O
viscosity [mPa·s], 100 kPa
Conditions	x1 = 0.0999	x1 = 0.2003	x1 = 0.3005	x1 = 0.4004	x1 = 0.4989	x1 = 0.6001	x1 = 0.7	x1 = 0.801	x1 = 0.8982
293.15 K	12.38	25.31	39.06	53.18	68.18	85.88	107	132.6	160.6
298.15 K	10.01	19.81	29.97	40.42	51.48	64.33	79.13	97.08	116.9
303.15 K	8.224	15.93	23.79	31.86	40.31	49.98	60.7	73.9	88.11
308.15 K	6.765	12.88	19.09	25.43	32.02	39.28	47.26	57.08	67.41
313.15 K	5.628	10.63	15.72	20.82	26.05	31.62	37.7	45.18	53.08
318.15 K	4.66	8.802	13.04	17.16	21.39	25.68	30.35	36.2	42.47
323.15 K	3.828	7.374	10.99	14.3	17.61	21.15	24.97	29.66	34.73

CCCCCCCCCCCC[P+](CCCC)(CCCC)CCCC.N#Cc1ccc[n-]1 + OCCN(CCO)CCO
100 kPa
Conditions	viscosity [mPa·s]
293.15 K, x1 = 0.017	983
293.15 K, x1 = 0.244	974
293.15 K, x1 = 0.325	926
293.15 K, x1 = 0.431	828
293.15 K, x1 = 0.538	765
293.15 K, x1 = 0.755	675
298.15 K, x1 = 0.035	674
298.15 K, x1 = 0.054	682
298.15 K, x1 = 0.096	687
298.15 K, x1 = 0.121	686
298.15 K, x1 = 0.177	678

CNC=O + Cc1ccccc1N
viscosity [mPa·s], 100 kPa
Conditions	x1 = 0.0896	x1 = 0.1601	x1 = 0.2501	x1 = 0.3425	x1 = 0.4328	x1 = 0.5424	x1 = 0.6554	x1 = 0.7342	x1 = 0.8414
303.15 K	3.114	3	2.853	2.702	2.553	2.369	2.179	2.045	1.86
308.15 K	2.708	2.617	2.498	2.375	2.254	2.105	1.95	1.84	1.689
313.15 K	2.393	2.317	2.219	2.117	2.016	1.892	1.763	1.671	1.544
318.15 K	2.081	2.022	1.946	1.865	1.786	1.688	1.585	1.513	1.411
